Test results as given in PMC12589998, “Development and validation of a UHPLC-QqQ-MS/MS method for simultaneous determination of fifteen major components from Oroxyli seed extract in rat plasma and its application in the pharmacokinetic study” (Frontiers in Pharmacology, 2025).
Like-named read-outs stand apart in the source and are kept apart here.

Assays:
[1] = Pharmacokinetic study in rats after oral administration of OS extract (UHPLC-QqQ-MS/MS of plasma); type: in vivo, rat; conditions: for concentration at 0.5 h: SD
Description: The UHPLC-QqQ-MS/MS system consisted of a 1290 UHPLC and a 6470 mass spectrometer (Agilent Technologies). Chromatographic separation was realized on utilizing an ACQUITY UPLC BEH C18 column (2.1 × 100 mm, 1.7 μm) maintained at 35 °C. The mobile phase consisting of 0.1% formic acid in water (A) and acetonitrile (B) was utilized with the elution program set at 0 min–1 min, 5% B–30% B; 1 min–4 min, 30% B– 50% B; 4 min–8 min, and 50% B–90% B. The injection volume was 5 μL, and the flow rate was 0.3 mL/min. The mass spectrometry parameters in the negative ion mode, gas temperature, flow rate, and nebulizer pressure were 300 °C, 7 L/min, and 35 psi, respectively. The mass spectra properties of the 15 analytes and the IS are illustrated in Table 1.
To 100 μL of the plasma sample, 20 μL of methanol, 20 μL of IS solution (methylparaben, 1 μg/mL), and 5 μL of formic acid were added and vortexed for a duration of 2 min. Subsequently, the mixture underwent extraction with 800 μL of acetonitrile for 3 min. Following 10 min of centrifugation at 12,000 g, the supernatant was collected and evaporated to dryness under N2 to obtain the residue. Finally, the residue was reconstituted in 50% methanol (100 μL) and utilized for analysis.
Before initiating the study, six male SD rats underwent a 12-h fasting period, during which they were granted unrestricted access to water. Then, the rats were administered an oral dose of 3 g/kg of the OS extract, which had been dissolved in 0.5% CMC-Na aqueous solution. Blood samples, approximately 200 μL each, were collected at various time points: before administration and at 0.03, 0.08, 0.17, 0.25, 0.5, 0.75, 1, 2, 4, 6, 8, 10, 12, 24, 36, and 48 h post-administration. Following 10 min of centrifugation at 6,000 g, the resultant samples were stored at −80 °C.
The developed method was effectively applied to study the pharmacokinetics in rats following oral administration of the OS extract. […] This was likely due to their low concentrations in the OS extract. Ultimately, nine components (chrysin, chrysin-7-O-β-D-glucuronide, baicalin, baicalein, oroxin A, oroxin B, oroxylin A, oroxylin A-7-O-β-D-glucuronide, and scutellarein) were successfully fitted with pharmacokinetic parameters. The average plasma concentration–time profiles of these substances are depicted in Figure 3. […] All data were presented as the mean ± standard deviation (Mean ± SD).

[2] = Stability of the analytes in rat plasma samples under storage conditions; type: physicochemical; conditions: n = 6
Description: The bioanalytical method validation was evaluated for specificity, linearity, sensitivity, precision and accuracy, recovery, matrix effect, and stability to ensure compliance with the U.S. Food and Drug Administration (FDA) guidance on precise quantitative analysis ([Center for Drug Evaluation and Research of the U.S., 2018]). The assessment of specificity was conducted by comparing the chromatograms obtained from blank plasma, blank plasma spiked with the target components, and samples gathered following the oral administration of OS extract. Calibration curves were constructed by plotting the ratio for the peak area of the analyte to IS versus the concentration, with 1/x^2 serving as the weighting factor. The lower limit of quantification (LLOQ) was defined as the concentration at which a signal to noise ratio of […] 10 was achievable. The evaluation of precision and accuracy involved the analysis of six QC samples, both within a single day and over 3 consecutive days. Accuracy was expressed as the relative error (RE), whereas precision was gauged via relative standard deviation (RSD). Extraction recovery was ascertained by juxtaposing the responses of analytes in extracted samples against those in samples that were spiked post-extraction. The matrix effect was scrutinized by determining the ratio of the responses of the analytes in post-extraction spiked samples to those in the mixed standard solution. The stability of the analytes in plasma samples was explored under diverse conditions: encompassing a 12-h period in an autosampler, a 4-h interval at room temperature, three cycles of freezing–thawing, and a 7-day duration at −80 °C.
The retention times of the analyte peaks were consistent with those in the spiked samples. […] The LLOQs for chrysin, chrysin-7-O-β-D-glucuronide, hispidulin, wogonoside, quercetin, quercetin-7-O-β-D-glucoside, baicalin, baicalein, acacetin, oroxin A, oroxin B, oroxylin A, oroxylin A-7-O-β-D-glucuronide, apigenin, and scutellarein were 1.0, 2.0, 1.0, 0.3, 1.0, 0.1, 9.0, 6.0, 0.3, 6.0, 4.0, 1.0, 2.0, 0.5, and 0.3 ng/mL, respectively. In Supplementary Table S2, the RE for accuracy is between −13.77% and 12.55%, and the RSD for precision is below 14.55% (both intra- and inter-day). […] The matrix effect varied from 60.15% to 115.53%, with RSD values below 10.54%. In Supplementary Table S4, the RSD values for stability of the analytes are found to be lower than 13.98%, meaning that these components were stable under the following conditions: encompassing a 12-h period in an autosampler, a 4-h interval at room temperature, three cycles of freezing and thawing, and a 7-day duration at −80 °C.

[3] = male, 3 g/kg, rat plasma collected 0.5 h after oral administration of the OS extract, read-out: Concentration printed in MRM chromatogram of plasma sample (Figure 2C)
[4] = spiked concentration 6400 ng/mL

Measured, -80°C for 7 days ([2]; spiked concentration 2 ng/mL) | Measured, Autosampler for 12 h ([2]; spiked concentration 2 ng/mL) | Measured, Room temperature for 4 h ([2]; spiked concentration 2 ng/mL) | Measured, Three freeze-thaw cycles ([2]; spiked concentration 2 ng/mL) | Measured, -80°C for 7 days ([2]; spiked concentration 20 ng/mL) | Measured, Autosampler for 12 h ([2]; spiked concentration 20 ng/mL) | Measured, Room temperature for 4 h ([2]; spiked concentration 20 ng/mL) | Measured, Three freeze-thaw cycles ([2]; spiked concentration 20 ng/mL) | Measured, -80°C for 7 days ([2]; spiked concentration 320 ng/mL) | Measured, Autosampler for 12 h ([2]; spiked concentration 320 ng/mL) | Measured, Room temperature for 4 h ([2]; spiked concentration 320 ng/mL) | Measured, Three freeze-thaw cycles ([2]; spiked concentration 320 ng/mL) | Structure (SMILES) | concentration at 0.5 h [1, 3] | also measured
1.78 ± 0.11 ng/mL | 1.78 ± 0.15 ng/mL | 2.20 ± 0.04 ng/mL | 1.81 ± 0.06 ng/mL | 17.78 ± 0.87 ng/mL | 22.01 ± 1.07 ng/mL | 21.25 ± 1.13 ng/mL | 17.60 ± 1.24 ng/mL | 284.83 ± 15.85 ng/mL | 317.16 ± 38.69 ng/mL | 313.68 ± 7.94 ng/mL | 282.90 ± 15.75 ng/mL | COc1ccc(-c2cc(=O)c3c(O)cc(O)cc3o2)cc1 [Acacetin, acacetin] | 8 ng/mL | Plasma levels ([1]; rat plasma after oral OS extract): too weak to obtain comprehensive pharmacokinetic curves
1.93 ± 0.09 ng/mL | 2.00 ± 0.16 ng/mL | 2.23 ± 0.11 ng/mL | 2.07 ± 0.13 ng/mL | 20.16 ± 2.35 ng/mL | 20.39 ± 1.55 ng/mL | 18.37 ± 0.87 ng/mL | 18.24 ± 1.16 ng/mL | 288.58 ± 21.30 ng/mL | 316.15 ± 18.09 ng/mL | 310.13 ± 19.51 ng/mL | 306.45 ± 18.15 ng/mL | O=c1cc(-c2ccc(O)cc2)oc2cc(O)cc(O)c12 [Apigenin, apigenin] |  | concentration at 0.5 h ([1]; male, rat, in vivo, po): 45 ng/mL; Plasma levels ([1]; rat, in vivo, po): too weak to obtain comprehensive pharmacokinetic curves
 |  |  |  |  |  |  |  |  |  |  |  | O=c1cc(-c2ccccc2)oc2cc(O)c(O)c(O)c12 [Baicalein, baicalein] | 400 ng/mL | AUC(0-t) ([1]; male, rat plasma, oral 3 g/kg OS extract, n = 6, mean ± SD, read-out: AUC(0-t)): 4200 ng·h/mL; AUC(0-inf) ([1]; male, rat plasma, oral 3 g/kg OS extract, n = 6, mean ± SD, read-out: AUC(0-∞)): 4600 ng·h/mL; Cmax ([1]; male, rat plasma, oral 3 g/kg OS extract, n = 6, mean ± SD, read-out: Cmax): 2930 ng/mL; half-life ([1]; male, rat plasma, oral 3 g/kg OS extract, n = 6, mean ± SD, read-out: T1/2 (converted)): 2.99 ± 1.18 h; Tmax ([1]; male, rat plasma, oral 3 g/kg OS extract, n = 6, mean ± SD, read-out: Tmax): 3.6 ± 1.8 min; Measured, -80°C for 7 days ([2]; spiked concentration 40 ng/mL): 38.12 ± 3.24 ng/mL; Measured, Autosampler for 12 h ([2]; spiked concentration 40 ng/mL): 39.31 ± 4.16 ng/mL; Measured, Room temperature for 4 h ([2]; spiked concentration 40 ng/mL): 40.41 ± 3.19 ng/mL; Measured, Three freeze-thaw cycles ([2]; spiked concentration 40 ng/mL): 38.12 ± 3.24 ng/mL; Measured, -80°C for 7 days ([2]; spiked concentration 400 ng/mL): 409.67 ± 26.03 ng/mL; Measured, Autosampler for 12 h ([2]; spiked concentration 400 ng/mL): 393.06 ± 21.11 ng/mL; Measured, Room temperature for 4 h ([2]; spiked concentration 400 ng/mL): 389.14 ± 35.85 ng/mL; Measured, Three freeze-thaw cycles ([2]; spiked concentration 400 ng/mL): 409.67 ± 26.03 ng/mL; Measured, -80°C for 7 days [2, 4]: 5967.02 ± 503.93 ng/mL; Measured, Autosampler for 12 h [2, 4]: 6241.15 ± 404.47 ng/mL; Measured, Room temperature for 4 h [2, 4]: 6247.34 ± 389.56 ng/mL; Measured, Three freeze-thaw cycles [2, 4]: 5967.02 ± 503.93 ng/mL
